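Dose response: 5 concentrations. Exposure: 48 h. Format: 96-well plates. Endpoint: linear interpolation; highest concentration if not reached. TGI denotes the concentration required for complete inhibition of growth.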

Data on 20 molecules can be found in PubChem BioAssay (NCI).

Test systems include MDA-MB-435; 786-0 renal; CAKI-1 renal; ACHN renal; HOP-62 NSCLC; CCRF-CEM leukemia; A549 NSCLC; A498 renal; HL-60(TB) leukemia; IGROV1 ovarian.
Holding throughout (test): NCI tumour cell line growth inhibition, 48 h

As for `C=C1C(=O)O[C@H]2C3C(=C(C)CC[C@@H]12)C(=O)[C@@H]1OC31C` (stereo not given in full), the TGI in the assay on MDA-MB-435 stood at 7.13 µM; in the assay with 786-0 renal, 3.26 µM; in the assay with CAKI-1 renal it was 7.9 µM; in the assay on ACHN renal, 8.07 µM; in the assay on HOP-62 NSCLC, 28.6 µM; in the assay with CCRF-CEM leukemia, 1.31 µM. Besides, the TGI turned out to be 28.3 µM with A549 NSCLC, 23.7 µM in the assay on A498 renal, 0.469 µM with HL-60(TB) leukemia and 11.8 µM in the assay on IGROV1 ovarian.
As to `c1ccc2c(c1)c1c3n2-c2cc(on2)C3CCC1` (stereo not given), the TGI in the assay on MDA-MB-435, with 786-0 renal, in the assay with CAKI-1 renal, with ACHN renal, in the assay with HOP-62 NSCLC and in the assay on CCRF-CEM leukemia was more than 100 µM in each case. In addition, the TGI in the assay with A549 NSCLC, with A498 renal, in the assay on HL-60(TB) leukemia and in the assay on IGROV1 ovarian was more than 100 µM throughout.
As to `COc1cc(-c2[o+]c3cc(O)cc(OC4OC(CO)C(O)C(O)C4O)c3cc2OC2OC(CO)C(O)C(O)C2O)cc(OC)c1O` (stereo not given), the TGI with MDA-MB-435, in the assay with 786-0 renal, in the assay with CAKI-1 renal, in the assay on ACHN renal, in the assay with HOP-62 NSCLC and in the assay on CCRF-CEM leukemia was more than 100 µM in each case. Moreover, the TGI in the assay with A549 NSCLC, with A498 renal, in the assay with HL-60(TB) leukemia and in the assay on IGROV1 ovarian was more than 100 µM throughout.
As for `CCOC(=O)C1=C(C)N(c2ccc(C)cc2)C2(O)C=CC(=O)C3=C(O)c4ccccc4C(=O)C312` (stereo not given), the TGI in the assay on MDA-MB-435 was more than 100 µM; in the assay with 786-0 renal, more than 100 µM; with CAKI-1 renal it was more than 100 µM; in the assay with ACHN renal, 50.1 µM; in the assay on HOP-62 NSCLC, more than 100 µM; in the assay on CCRF-CEM leukemia, more than 100 µM. The TGI with A549 NSCLC was more than 100 µM; in the assay with A498 renal, 67.9 µM; in the assay on HL-60(TB) leukemia, 0.039 µM; in the assay on IGROV1 ovarian, 45.5 µM.
For `Cn1c(=O)c2[nH]c(CCC(=O)O)nc2n(C)c1=O`, the TGI with MDA-MB-435, in the assay on 786-0 renal, in the assay on CAKI-1 renal, in the assay with ACHN renal, in the assay on HOP-62 NSCLC and with CCRF-CEM leukemia was more than 100 µM throughout. Besides, the TGI in the assay on A549 NSCLC, in the assay on A498 renal, in the assay with HL-60(TB) leukemia and with IGROV1 ovarian was more than 100 µM in each case.
For the molecule `CCOC(=O)c1cc(-c2ccn(C(C)=O)c2)c(-c2cc(C)co2)[nH]1`, the TGI in the assay on MDA-MB-435, with 786-0 renal, in the assay on CAKI-1 renal, in the assay with ACHN renal, in the assay with HOP-62 NSCLC and with CCRF-CEM leukemia was more than 100 µM in each case. Moreover, the TGI with A549 NSCLC, with A498 renal, in the assay on HL-60(TB) leukemia and with IGROV1 ovarian was more than 100 µM each time.
`CCOC(=O)N1C(=S)C(C(=O)OC)(C(=O)OC)N=C1C`: the TGI in the assay with MDA-MB-435, with 786-0 renal, in the assay with CAKI-1 renal, in the assay on ACHN renal, with HOP-62 NSCLC and in the assay on CCRF-CEM leukemia was more than 100 µM throughout. Further, the TGI with A549 NSCLC, with A498 renal, in the assay with HL-60(TB) leukemia and in the assay on IGROV1 ovarian was more than 100 µM throughout.
For `Cc1ccc(S(=O)(=O)N2CCN(CCO)CCN(S(=O)(=O)c3ccc(C)cc3)CCN(CCO)CC2)cc1`, the TGI in the assay on MDA-MB-435 was 29.2 µM; with 786-0 renal it was 67 µM; with CAKI-1 renal it was more than 100 µM; in the assay on ACHN renal, 90.9 µM; in the assay with HOP-62 NSCLC, 81.5 µM; with CCRF-CEM leukemia, 54 µM. Also, the TGI is 57 µM in the assay on A549 NSCLC, 62.7 µM with A498 renal, 37.3 µM with HL-60(TB) leukemia and more than 100 µM with IGROV1 ovarian.
Turning to `C=C(C(=O)OC)[C@H]1CC/C(C)=C/CC/C(C)=C/CC[C@@]2(C)O[C@@H]2C1`, the TGI in the assay on MDA-MB-435 was 58.5 µM; with 786-0 renal, 29.2 µM; in the assay on CAKI-1 renal it was 28.1 µM; with ACHN renal it was 34.5 µM; in the assay with HOP-62 NSCLC it was 42.5 µM; in the assay with CCRF-CEM leukemia it was 30 µM. The TGI in the assay with A549 NSCLC was found to be 37.4 µM; in the assay on A498 renal, 62.2 µM; in the assay on HL-60(TB) leukemia, 30.9 µM; in the assay with IGROV1 ovarian, 31.5 µM.
Consider `O=c1oc2ccccc2c(O)c1Cc1cccc(Cc2c(O)c3ccccc3oc2=O)c1`, for which the TGI in the assay on MDA-MB-435, in the assay with 786-0 renal, with CAKI-1 renal, in the assay on ACHN renal, in the assay with HOP-62 NSCLC and in the assay on CCRF-CEM leukemia was more than 100 µM each time. For the same molecule, the TGI with A549 NSCLC, in the assay with A498 renal, with HL-60(TB) leukemia and in the assay on IGROV1 ovarian was more than 100 µM throughout.
Turning to `N#Cc1c(C#N)c(-c2ccccc2)n(/N=C\c2ccccc2)c1N`, the TGI in the assay with MDA-MB-435 was more than 100 µM; in the assay with 786-0 renal it was more than 100 µM; in the assay on CAKI-1 renal, more than 100 µM; in the assay with ACHN renal, more than 100 µM; with HOP-62 NSCLC, more than 100 µM; with CCRF-CEM leukemia, 51.2 µM. In addition, the TGI is 71.4 µM with A549 NSCLC, 77.4 µM with A498 renal, more than 100 µM with HL-60(TB) leukemia and 84.7 µM in the assay with IGROV1 ovarian.
Consider `c1ccc(CNc2ncnc3n[nH]nc23)cc1`, for which the TGI with MDA-MB-435, in the assay on 786-0 renal, in the assay on CAKI-1 renal, in the assay on ACHN renal, in the assay on HOP-62 NSCLC and in the assay on CCRF-CEM leukemia was more than 100 µM throughout. The TGI in the assay on A549 NSCLC, with A498 renal, with HL-60(TB) leukemia and in the assay on IGROV1 ovarian was more than 100 µM throughout.
`COc1ccc(C(C)NNC(=O)c2ccncc2)cc1F` (stereo not given): the TGI with MDA-MB-435, in the assay with 786-0 renal, in the assay on CAKI-1 renal, with ACHN renal, with HOP-62 NSCLC and in the assay on CCRF-CEM leukemia was more than 100 µM each time. Besides, the TGI in the assay with A549 NSCLC, with A498 renal, in the assay with HL-60(TB) leukemia and in the assay with IGROV1 ovarian was more than 100 µM each time.
Consider `Cc1cccc2c1C(=O)[C@@](C)([C@]1(C)Nc3cccc(C)c3C1=O)N2`, for which the TGI in the assay on MDA-MB-435, with 786-0 renal, in the assay with CAKI-1 renal, in the assay on ACHN renal, in the assay with HOP-62 NSCLC and in the assay on CCRF-CEM leukemia was more than 100 µM in each case. The TGI with A549 NSCLC was more than 100 µM; in the assay with A498 renal it was more than 100 µM; in the assay on HL-60(TB) leukemia, 7.9 µM; with IGROV1 ovarian, more than 100 µM.
With `O=C(NC/C=C/Br)NC1CCNc2ccccc21` (stereo not given), the TGI in the assay with MDA-MB-435 is 88.9 µM; with 786-0 renal, 81.9 µM; with CAKI-1 renal, more than 100 µM; in the assay with ACHN renal it was more than 100 µM; with HOP-62 NSCLC it was more than 100 µM; in the assay with CCRF-CEM leukemia, more than 100 µM. Also, the TGI in the assay with A549 NSCLC is more than 100 µM; in the assay with A498 renal, 70.4 µM; in the assay with HL-60(TB) leukemia, more than 100 µM; with IGROV1 ovarian, more than 100 µM.
Consider `COC(=O)C1=C(C)NC2(C)OC(C)(O)C(C(C)=O)C12C(C)=O` (stereo not given), for which the TGI in the assay on MDA-MB-435, in the assay with 786-0 renal, in the assay on CAKI-1 renal, with ACHN renal, in the assay on HOP-62 NSCLC and with CCRF-CEM leukemia was more than 100 µM in each case. The TGI in the assay with A549 NSCLC, in the assay on A498 renal, with HL-60(TB) leukemia and in the assay on IGROV1 ovarian was more than 100 µM throughout.
With `CN(C)C=Nc1nncc2n[nH]nc12`, the TGI with MDA-MB-435, with 786-0 renal, with CAKI-1 renal, with ACHN renal, in the assay with HOP-62 NSCLC and in the assay on CCRF-CEM leukemia was more than 100 µM throughout. For the same molecule, the TGI in the assay on A549 NSCLC, with A498 renal, in the assay on HL-60(TB) leukemia and in the assay with IGROV1 ovarian was more than 100 µM each time.
On to `Nc1ccc(-c2nc3ccccc3s2)cc1`, for which the TGI is 32.1 µM in the assay on MDA-MB-435; 29.7 µM in the assay with 786-0 renal; more than 67.8 µM in the assay with CAKI-1 renal; 31.8 µM in the assay with ACHN renal; 60.3 µM in the assay on HOP-62 NSCLC; 54.4 µM in the assay on CCRF-CEM leukemia. The TGI was found to be 63.2 µM with A549 NSCLC, 65 µM with A498 renal, 61.6 µM in the assay with HL-60(TB) leukemia and 48.7 µM in the assay on IGROV1 ovarian.
As for `S=C(Nc1ccc2c(c1)Cc1ccccc1-2)Nc1ccc2c(c1)Cc1ccccc1-2`, the TGI was more than 100 µM in the assay with MDA-MB-435; more than 100 µM in the assay with 786-0 renal; more than 100 µM in the assay with CAKI-1 renal; more than 100 µM in the assay on ACHN renal; more than 100 µM with HOP-62 NSCLC; 27.2 µM in the assay on CCRF-CEM leukemia. The TGI with A549 NSCLC is more than 100 µM; in the assay on A498 renal, more than 100 µM; in the assay with HL-60(TB) leukemia, 22.4 µM; in the assay with IGROV1 ovarian, more than 100 µM.
Turning to `O=c1/c(=C/c2ccc(-c3ccc(Cl)cc3Cl)o2)sc2n1[C@@H](c1ccc3c(c1)OCO3)C=C(c1cc(F)c(Cl)cc1Cl)N=2`, the TGI is more than 100 µM in the assay with MDA-MB-435; more than 100 µM in the assay with 786-0 renal; more than 100 µM in the assay on CAKI-1 renal; more than 100 µM with ACHN renal; 28.9 µM with HOP-62 NSCLC; more than 100 µM with CCRF-CEM leukemia. Further, the TGI is more than 100 µM with A549 NSCLC, 6 µM with A498 renal, more than 100 µM with HL-60(TB) leukemia and more than 100 µM with IGROV1 ovarian.
